Laboratory results published in patent US20230248665A1, “COMPOSITION COMPRISING DIMETHYLCHALCONE DERIVATIVE FOR PREVENTION OR TREATMENT OF METABOLIC DISEASE” (SEOUL NATIONAL UNIVERSITY R & DB FOUNDATION, priority 2020, published 2023).

Tests used:
Assay type in all cases: cell-based
[1] = system: human kidney proximal tubule epithelial cell (HK-2) cell line; test: Antioxidant effect, intracellular reactive oxygen species (DCF-DA) in HK-2 kidney cells after H2O2; details: 1 µM for 18 hours, then 500 µM H2O2 for 6 hours, FIG. 6
Description: First, the antioxidant effect was checked using kidney cells. More specifically, a human kidney proximal tubule epithelial cell (HK-2) cell line was treated with 1 µM DMC derivative and cultured for 18 hours. Then, 500 µM H2O2 was added to the culture medium and the culture medium was incubated for 6 hours. Thereafter, the amount of intracellular reactive oxygen species (iROS) was measured using dichlorohydro-fluorescein diacetate (DCF-DA).

[2] = system: vascular endothelial cells (HUVECs) and THP-1 (human monocyte) immune cells; test: Binding of THP-1 immune cells to TNFα-treated vascular endothelial cells (HUVECs); details: 10 µM with 10 ng/mL TNFα, 24 hours, then THP-1 for 1 hour; FIG. 5
Description: In the early stages of progression of vascular diseases such as arteriosclerosis, adhesion materials are expressed in vascular endothelial cells due to various environmental factors, thereby increasing the binding of immune cells. Therefore, in order to check whether the DMC derivatives of Example 1 affect the binding between vascular endothelial cells and immune cells, vascular endothelial cells (HUVECs) were treated with 10 ng/mL TNFα and 10 µM DMC derivative and cultured for 24 hours. Then, THP-1 (human monocyte) immune cells labeled with a fluorescent protein were added to the culture solution, and the cells were additionally cultured for 1 hour. After the culture was completed, unbound immune cells were removed using a phosphate buffer solution, and then the degree of binding of immune cells to vascular endothelial cells was determined by measuring the intensity of fluorescence.

AMPK = AMPK activity, western blotting of phosphorylated AMPK in C2C12 myotubes; details: 10 µM, 24 hours, FIG. 2
Description: AMP-activated protein kinase (AMPK) is a member of serine/threonine kinases, and is an enzyme known as an energy sensor which senses the intracellular energy state. Moreover, the activation of AMPK is known to show the effect of increasing glucose transport and promoting fatty acid oxidation in skeletal muscle, and to […] the synthesis of cholesterol and triglycerides, decrease lipogenesis, and increase fatty acid oxidation, and ketogenesis, and the like in the liver. Further, the activation of AMPK is known to reduce adipogenesis in adipose tissue and increase insulin secretion in pancreatic beta cells, thereby being able to be applied to the treatment of various metabolic diseases. Therefore, western blotting was performed in order to confirm the effect of the DMC derivatives of Example 1 on AMPK activity. More specifically, the C2C12 myoblasts were primarily cultured in DMEM supplemented with 10% fetal bovine serum, and then cultured in DMEM supplemented with 2% horse serum for 5 days to differentiate into myotubes. Then, the differentiated myotubes were treated with 10 µM DMC derivative and cultured for 24 hours, and then cells were collected, and disrupted using an ultrasonic disperser to obtain proteins. Next, western blotting was performed using a pAMPK antibody (Cell Signaling Technology) and an AMPK antibody (Cell Signaling Technology) to measure the amount of phosphorylated AMPK. 1 mM AICAR was used as a positive control, and 20 µg of protein was used for each sample in western blotting.

[3] = system: rat aortic smooth muscle cells; test: PDGF-induced migration of vascular smooth muscle cells; details: 1 µM with 10 ng/mL PDGF; FIG. 4
Description: Proliferation and migration of vascular smooth muscle cells are known to be essential steps in the progression of vascular diseases such as restenosis and arteriosclerosis. Therefore, in order to confirm the effect of the DMC derivatives of Example 1 on the migration of rat aortic smooth muscle cells, smooth muscle cells were treated with 10 ng/mL platelet-derived growth factor (PDGF) and 1 µM DMC derivative and cultured. Then, the degree of cell migration was measured.

Structure (SMILES): COCOc1c(C)c(O)c(C(=O)/C=C/c2ccc(F)c(F)c2)c(OC)c1C [Chemical Formula 11, 1-(2′-hydroxy-4′-(methoxymethoxy)-6′-methoxy-3′,5′-dimethylphenyl)-3-(3,4-difluorophenyl)-2-propen-1-one]
- amount of intracellular reactive oxygen species (ROS) [1]: effectively reduced ROS
- binding of immune cells to vascular endothelial cells (fluorescence) [2]: similarly or more effectively suppressed the binding of immune cells than Rosi
- activity of AMPK (phosphorylated AMPK) (AMPK): increased the activity of AMPK similarly to or more effectively than the positive controls

Structure (SMILES): COc1c(C)c(O)c(C)c(O)c1C(=O)/C=C/c1ccc(F)c(F)c1 [Chemical Formula 6, 1-(2′,4′-dihydroxy-6′-methoxy-3′,5′-dimethylphenyl)-3-(3,4-difluorophenyl)-2-propen-1-one]
- amount of intracellular reactive oxygen species (ROS) [1]: effectively reduced ROS
- binding of immune cells to vascular endothelial cells (fluorescence) [2]: similarly or more effectively suppressed the binding of immune cells than Rosi
- activity of AMPK (phosphorylated AMPK) (AMPK): increased the activity of AMPK similarly to or more effectively than the positive controls

Structure (SMILES): COCOc1c(C)c(O)c(C(=O)/C=C/c2ccccc2Cl)c(OC)c1C [Chemical Formula 38, 1-(2′-hydroxy-4′-(methoxymethoxy)-6′-methoxy-3′,5′-dimethylphenyl)-3-(2-chlorophenyl)-2-propen-1-one]
- migration of vascular smooth muscle cells [3]: similarly or more effectively suppressed cell migration by PDGF than AICAR and Rosi, which were used as positive controls, and DMC
- binding of immune cells to vascular endothelial cells (fluorescence) [2]: similarly or more effectively suppressed the binding of immune cells than Rosi

Structure (SMILES): COCOc1c(C)c(O)c(C(=O)/C=C/c2ccccc2)c(OC)c1C [Chemical Formula 25, 1-(2′-hydroxy-4′-(methoxymethoxy)-6′-methoxy-3′,5′-dimethylphenyl)-3-phenyl-2-propen-1-one]
- migration of vascular smooth muscle cells [3]: similarly or more effectively suppressed cell migration by PDGF than AICAR and Rosi, which were used as positive controls, and DMC
- amount of intracellular reactive oxygen species (ROS) [1]: effectively reduced ROS
- binding of immune cells to vascular endothelial cells (fluorescence) [2]: similarly or more effectively suppressed the binding of immune cells than Rosi
- activity of AMPK (phosphorylated AMPK) (AMPK): increased the activity of AMPK similarly to or more effectively than the positive controls

Structure (SMILES): COCOc1c(C)c(O)c(C(=O)/C=C/c2ccc(SC)cc2)c(OC)c1C [Chemical Formula 13, 1-(2′-hydroxy-4′-(methoxymethoxy)-6′-methoxy-3′,5′-dimethyphenyl)-3-(4-methylthiophenyl)-2-propen-1-one]
- migration of vascular smooth muscle cells [3]: similarly or more effectively suppressed cell migration by PDGF than AICAR and Rosi, which were used as positive controls, and DMC
- amount of intracellular reactive oxygen species (ROS) [1]: effectively reduced ROS
- binding of immune cells to vascular endothelial cells (fluorescence) [2]: similarly or more effectively suppressed the binding of immune cells than Rosi

Structure (SMILES): COc1c(C)c(O)c(C)c(O)c1C(=O)/C=C/c1ccc(C(F)(F)F)cc1 [Chemical Formula 9, 1-(2′,4′-dihydroxy-6′-methoxy-3′,5′-dimethylphenyl)-3-(4-(trifluoromethyl)phenyl)-2-propen-1-one]
- amount of intracellular reactive oxygen species (ROS) [1]: effectively reduced ROS
- binding of immune cells to vascular endothelial cells (fluorescence) [2]: similarly or more effectively suppressed the binding of immune cells than Rosi
- activity of AMPK (phosphorylated AMPK) (AMPK): increased the activity of AMPK similarly to or more effectively than the positive controls

Structure (SMILES): COc1c(C)c(O)c(C)c(O)c1C(=O)/C=C/c1ccc(Cl)cc1 [Chemical Formula 8, 1-(2′,4′-dihydroxy-6′-methoxy-3′,5′-dimethylphenyl)-3-(4-chlorophenyl)-2-propen-1-one]
- amount of intracellular reactive oxygen species (ROS) [1]: effectively reduced ROS
- binding of immune cells to vascular endothelial cells (fluorescence) [2]: similarly or more effectively suppressed the binding of immune cells than Rosi
- activity of AMPK (phosphorylated AMPK) (AMPK): increased the activity of AMPK similarly to or more effectively than the positive controls

Structure (SMILES): COCOc1c(C)c(O)c(C(=O)/C=C/c2cccc(F)c2)c(OC)c1C [Chemical Formula 35, 1-(2′-hydroxy-4′-(methoxymethoxy)-6′-methoxy-3′,5′-dimethylphenyl)-3-(3-fluorophenyl)-2-propen-1-one]
- amount of intracellular reactive oxygen species (ROS) [1]: effectively reduced ROS
- binding of immune cells to vascular endothelial cells (fluorescence) [2]: similarly or more effectively suppressed the binding of immune cells than Rosi

Structure (SMILES): COc1c(C)c(O)c(C)c(O)c1C(=O)/C=C/c1ccc(C)cc1C [Chemical Formula 39, 1-(2′,4′-dihydroxy-6′-methoxy-3′,5′-dimethylphenyl)-3-(2,4-dimethylphenyl)-2-propen-1-one]
- migration of vascular smooth muscle cells [3]: similarly or more effectively suppressed cell migration by PDGF than AICAR and Rosi, which were used as positive controls, and DMC
- binding of immune cells to vascular endothelial cells (fluorescence) [2]: similarly or more effectively suppressed the binding of immune cells than Rosi
- activity of AMPK (phosphorylated AMPK) (AMPK): increased the activity of AMPK similarly to or more effectively than the positive controls

Structure (SMILES): COCOc1c(C)c(O)c(C(=O)/C=C/c2ccc(Cl)cc2)c(OC)c1C [Chemical Formula 12, 1-(2′-hydroxy-4′-(methoxymethoxy)-6′-methoxy-3′,5′-dimethyphenyl)-3-(4-chlorophenyl)-2-propen-1-one]
- amount of intracellular reactive oxygen species (ROS) [1]: effectively reduced ROS
- binding of immune cells to vascular endothelial cells (fluorescence) [2]: similarly or more effectively suppressed the binding of immune cells than Rosi
- activity of AMPK (phosphorylated AMPK) (AMPK): increased the activity of AMPK similarly to or more effectively than the positive controls

Structure (SMILES): COc1ccc(OC)c(/C=C/C(=O)c2c(O)c(C)c(O)c(C)c2OC)c1 [Chemical Formula 10, 1-(2′,4′-dihydroxy-6′-methoxy-3′,5′-dimethylphenyl)-3-(2,5-dimethoxyphenyl)-2-propen-1-one]
- amount of intracellular reactive oxygen species (ROS) [1]: effectively reduced ROS
- binding of immune cells to vascular endothelial cells (fluorescence) [2]: similarly or more effectively suppressed the binding of immune cells than Rosi

Structure (SMILES): CCOc1ccc(/C=C/C(=O)c2c(O)c(C)c(O)c(C)c2OC)cc1F [Chemical Formula 33, 1-(2′,4′-dihydroxy-6′-methoxy-3′,5′-dimethylphenyl)-3-(4-ethoxy-3-fluorophenyl)-2-propen-1-one]
- migration of vascular smooth muscle cells [3]: similarly or more effectively suppressed cell migration by PDGF than AICAR and Rosi, which were used as positive controls, and DMC
- amount of intracellular reactive oxygen species (ROS) [1]: effectively reduced ROS
- binding of immune cells to vascular endothelial cells (fluorescence) [2]: similarly or more effectively suppressed the binding of immune cells than Rosi

Structure (SMILES): COc1c(C)c(O)c(C)c(O)c1C(=O)/C=C/c1ccc(F)cc1 [Chemical Formula 2, 1-(2′,4′-dihydroxy-6′-methoxy-3′,5′-dimethylphenyl)-3-(4-fluorophenyl)-2-propen-l-one]
- migration of vascular smooth muscle cells [3]: similarly or more effectively suppressed cell migration by PDGF than AICAR and Rosi, which were used as positive controls, and DMC
- amount of intracellular reactive oxygen species (ROS) [1]: effectively reduced ROS
- binding of immune cells to vascular endothelial cells (fluorescence) [2]: similarly or more effectively suppressed the binding of immune cells than Rosi

Structure (SMILES): COc1c(C)c(O)c(C)c(O)c1C(=O)/C=C/c1ccc(N(C)C)cc1 [Chemical Formula 7, 1-(2,4′-dihydroxy-6′-methoxy-3′,5′-dimethylphenyl)-3-(4-(N,N-dimethylamino)phenyl)-2-propen-1-one]
- amount of intracellular reactive oxygen species (ROS) [1]: effectively reduced ROS
- binding of immune cells to vascular endothelial cells (fluorescence) [2]: similarly or more effectively suppressed the binding of immune cells than Rosi

Structure (SMILES): COCOc1c(C)c(O)c(C(=O)/C=C/c2ccc(C(F)(F)F)cc2)c(OC)c1C [Chemical Formula 14, 1-(2′-hydroxy-4′-(methoxymethoxy)-6′-methoxy-3′,5′-dimethylphenyl)-3-(4-(trifluoromethyl)phenyl)-2-propen-1-one]
- amount of intracellular reactive oxygen species (ROS) [1]: effectively reduced ROS
- binding of immune cells to vascular endothelial cells (fluorescence) [2]: similarly or more effectively suppressed the binding of immune cells than Rosi
